The results in this text go back to patent US10172355B2, “Safened herbicidal compositions including 4-amino-3-chloro-5-fluoro-6-(4-chloro-2-fluoro-3-methoxyphenyl)pyridine-2-carboxylic acid or a derivative thereof for use in rice” (Dow AgroSciences LLC, priority 2012, dated 2019).

One assay deals with ORYSA=Orysa sativa, Rice. Briefly: In-water applied herbicides and safeners in transplanted paddy rice, visual injury. The assay is classed as in vivo. The conditions noted are these: for Mean Visual Injury (%) - 21 DAA ORYSA - ‘M202’ / Mean Visual Injury (%) - 21 DAA ORYSA - ‘Wells’: in-water applied. Here is the method: (§1) Weed seeds or nutlets of the desired test plant species were planted in puddled soil (mud) prepared by mixing a shredded, non-sterilized mineral soil (50.5 percent silt, 25.5 percent clay, and 24 percent sand, with a pH of about 7.6 and an organic matter content of about 2.9 percent) and water at a 1:1 volumetric ratio. The prepared mud was dispensed in 365 mL aliquots into 16-ounce (oz.) non-perforated plastic pots with a surface area of 86.59 square centimeters (cm^2) leaving a headspace of 3 centimeters (cm) in each pot. Rice seeds were planted in Sun Gro MetroMix® 306 planting mixture, which typically has a pH of 6.0 to 6.8 and an organic matter content of about 30 percent, in plastic plug trays. Seedlings at the second or third leaf stage of growth were transplanted into 860 mL of mud contained in 32-oz. non-perforated plastic pots with a surface area of 86.59 cm^2 4 days prior to herbicide application. The paddy was created by filling the headspace of the pots with 2.5 to 3 cm of water. When required to ensure good germination and healthy plants, a fungicide treatment and/or other chemical or physical treatment was applied. The plants were grown for 4-22 days in a greenhouse with an approximate 14 h photoperiod which was maintained at about 29′C during the day and about 26° C. during the night. Nutrients were added as Osmocote® (17:6:10, N:P:K+minor nutrients) at 2 g per 16-oz. pot and 4 g per 32-oz. pot. Water was added on a regular basis to maintain the paddy flood, and supplemental lighting was provided with overhead metal halide 1000-Watt lamps as necessary. The plants were employed for testing when they reached the second or third true leaf stage.
(§2) Treatments consisted of the acid or esters of 4-amino-3-chloro-5-fluoro-6-(4-chloro-2-fluoro-3-methoxy-phenyl)pyridine-2-carboxylic acid (compound A) and various safeners alone and in combination. Forms of compound A were applied on an acid equivalent basis. Safener components were applied on an active ingredient or acid equivalent basis depending on the compound.
(§3) Treatment requirements for each compound or herbicidal component were calculated based upon the rates being tested, the concentration of active ingredient or acid equivalent in the formulation, an application volume of 2 mL per component per pot, and an application area of 86.59 cm^2 per pot.
(§4) For formulated compounds, a measured amount was placed in an individual 100 or 200 mL glass vial and was dissolved in a volume of 1.25% (v/v) Agri-Dex® crop oil concentrate to obtain application solutions.
(§5) For technical grade compounds, a weighed amount can be placed in an individual 100 to 200 mL glass vial and dissolved in a volume of acetone to obtain concentrated stock solutions. […] The concentrated stock solutions obtained can be diluted with an equivalent volume of an aqueous mixture containing 2.5% (v/v) crop oil concentrate so that the final application solutions contain 1.25% (v/v) crop oil concentrate.
(§6) Applications were made by injecting with a pipetter appropriate amounts of the application solutions, individually and sequentially, into the aqueous layer of the paddy. Control plants were treated in the same manner with the solvent blank. Applications were made so that all treated plant material received the same concentrations of acetone and crop oil concentrate.
(§7) The treated plants and control plants were placed in a greenhouse as described above and water was added as needed to maintain a paddy flood. After approximately 3 weeks the condition of the test plants as compared with that of the untreated plants was determined visually and scored on a scale of 0 to 100 percent where 0 corresponds to no injury or growth inhibition and 100 corresponds to complete kill.
Colby's equation was used to determine the herbicidal effects expected from the mixtures (Colby, S. R. 1967. Calculation of the synergistic and antagonistic response of herbicide combinations. Weeds 15:20-22.). […]

Assay [1] concerns ECHCG=Echinochloa crus-galli. Briefly: In-water applied herbicides in paddy, visual injury of weed. The format is in vivo. Here is the method: as §1, §2, §3, §4, §5, §6, §7
Some of the safener-herbicide combinations tested, application rates and ratios employed, plant species tested, and results are given in Tables 16-17. […]

With `COc1c(Cl)ccc(-c2nc(C(=O)O)c(Cl)c(N)c2F)c1F` [Acid, 4-amino-3-chloro-6-(4-chloro-2-fluoro-3-methoxyphenyl)-5-fluoropyridine-2-carboxylic acid], the “Mean Visual Injury (%) - 21 DAA ORYSA - ‘M202’” value amounted to 0% with ORYSA=Orysa sativa, Rice (8.75 g ae/ha); 0% in the assay with ORYSA=Orysa sativa, Rice (17.5 g ae/ha); 0% in the assay with ORYSA=Orysa sativa, Rice (35 g ae/ha); 3% in the assay with ORYSA=Orysa sativa, Rice (70 g ae/ha); 25% in the assay with ORYSA=Orysa sativa, Rice (140 g ae/ha). Further, the “Mean Visual Injury (%) - 21 DAA ORYSA - ‘Wells’” value was 0% in the assay on ORYSA=Orysa sativa, Rice (8.75 g ae/ha); 0% with ORYSA=Orysa sativa, Rice (17.5 g ae/ha); 0% with ORYSA=Orysa sativa, Rice (35 g ae/ha); 0% in the assay on ORYSA=Orysa sativa, Rice (70 g ae/ha); 8% with ORYSA=Orysa sativa, Rice (140 g ae/ha). Further, the “Mean Visual Injury (%) - 21 DAA ECHCG” value is recorded as 0% in assay [1] (8.75 g ae/ha); 0% in assay [1] (17.5 g ae/ha); 10% in assay [1] (35 g ae/ha); 63% in assay [1] (70 g ae/ha); 95% in assay [1] (140 g ae/ha).
On to `COc1c(Cl)ccc(-c2nc(C(=O)OCc3ccccc3)c(Cl)c(N)c2F)c1F` [Benzyl], for which the “Mean Visual Injury (%) - 21 DAA ORYSA - ‘M202’” value in the assay with ORYSA=Orysa sativa, Rice (8.75 g ae/ha) was 0%; with ORYSA=Orysa sativa, Rice (17.5 g ae/ha), 0%; in the assay on ORYSA=Orysa sativa, Rice (35 g ae/ha), 0%; with ORYSA=Orysa sativa, Rice (70 g ae/ha), 0%; in the assay on ORYSA=Orysa sativa, Rice (140 g ae/ha) it was 22%. For the same compound, the “Mean Visual Injury (%) - 21 DAA ORYSA - ‘Wells’” value in the assay on ORYSA=Orysa sativa, Rice (8.75 g ae/ha) was 0%; in the assay with ORYSA=Orysa sativa, Rice (17.5 g ae/ha) it was 0%; in the assay on ORYSA=Orysa sativa, Rice (35 g ae/ha), 3%; in the assay with ORYSA=Orysa sativa, Rice (70 g ae/ha), 0%; in the assay on ORYSA=Orysa sativa, Rice (140 g ae/ha), 15%. Also, the selectivity margin entry in the assay with ORYSA=Orysa sativa, Rice (in-water, relative rice and barnyardgrass responses, over that of the acid) is given as “improved selectivity margin”. The “Mean Visual Injury (%) - 21 DAA ECHCG” value in assay [1] (8.75 g ae/ha) is listed as 23%; in assay [1] (17.5 g ae/ha), 43%; in assay [1] (35 g ae/ha) it was 81%; in assay [1] (70 g ae/ha), 100%; in assay [1] (140 g ae/ha), 100%.
